Results on six compounds are retold here after US20250136607A1 (REGOR PHARMACEUTICALS, INC., priority 2021, published 2025).

Like-named read-outs stand apart in the source and are kept apart here.

As usually defined, the IC50 is the midpoint of a concentration-inhibition curve.

In the assay the test system is Citrullinated Histone H3 in dHL-60 cells (differentiated HL-60). The assay can be described thus: dHL-60 Cit-H3 ELISA assay. Format: cell-based, human. Conditions: read-out: Average IC50 Abs. A digest of the protocol:
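HL-60 cells differentiated 72 h with DMF, plated at 1×10^5/well, pretreated 30 min with compound (8-point 3-fold series, 0.2% DMSO), then stimulated 3 h at 37 °C with 25 μM A23187 plus S7 nuclease. Supernatant citrullinated H3 quantified by HRP ELISA at 450 nm; IC50 by four-parameter fit.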
(An ELISA detects its analyte on a solid surface through an enzyme-linked reagent.)

The mark [1] stands for this setting: stimulation with 25 μM A23187 for 3 h.
Setting [2] is: Homo sapiens, HL-60, 3 h, stimulation with 25 μM A23187 for 3 h.

On to `CCC1CN(CCCO)c2cccc3cc(-c4nc5cc(C(=O)N6C[C@H](N)C[C@@H](F)C6)cc(OC)c5n4C)n1c23` (single isomer, unassigned) [Example 82], for which the IC50 under setting [1] was at most 100 nM. For the compound `CCC1CN(CCCO)c2cccc3cc(-c4nc5cc(C(=O)N6C[C@H]7CC[C@@H]6[C@@H]7N)cc(OC)c5n4C)n1c23` (single isomer, unassigned) [Example 86], the IC50 under setting [1] is 500 to 5000 nM. On to `CCC1CN(CCCO)c2cccc3cc(-c4nc5cc(C(=O)N6C[C@H]7CC[C@@H]6[C@@H]7N)cc(OC)c5n4C)n1c23` (single isomer, unassigned) [Example 87], for which the IC50 under setting [1] is at most 100 nM. Take `CCC1CN(CCCO)c2cccc3cc(-c4nc5cc(C(=O)N6C[C@H](N)C[C@@H](F)C6)cc(F)c5n4C)n1c23` (stereo partly drawn) [Example 75, ((3R,5R)-3-amino-5-fluoropiperidin-1-yl)(2-(3-ethyl-1-(3-hydroxypropyl)-2,3-dihydro-1H-pyrrolo[1,2,3-de]quinoxalin-5-yl)-7-fluoro-1-methyl-1H-benzo[d]imidazol-5-yl)methanone]: the half-inhibitory concentration (IC50) under setting [2] fell in the range of 100 to 500 nM. `C#CCn1c(-c2cc3cccc4c3n2C(CC)CN4CCCO)nc2cc(C(=O)N3C[C@H](N)C[C@@H](F)C3)cc(OC)c21` (stereo partly drawn) [Example 95, ((3R,5R)-3-amino-5-fluoropiperidin-1-yl)(2-(3-ethyl-1-(3-hydroxypropyl)-2,3-dihydro-1H-pyrrolo[1,2,3-de]quinoxalin-5-yl)-7-methoxy-1-(prop-2-yn-1-yl)-1H-benzo[d]imidazol-5-yl)methanone]: the IC50 under setting [2] was in the range of 100 to 500 nM. For `CCC1CN(CCCO)c2cccc3cc(-c4nc5cc(C(=O)N6C[C@H]7CC[C@@H]6[C@@H]7N)cc(F)c5n4CC)n1c23` (stereo partly drawn) [Example 96, ((1R,4R,7R)-7-amino-2-azabicyclo[2.2.1]heptan-2-yl)(1-ethyl-2-(3-ethyl-1-(3-hydroxypropyl)-2,3-dihydro-1H-pyrrolo[1,2,3-de]quinoxalin-5-yl)-7-fluoro-1H-benzo[d]imidazol-5-yl)methanone], where the note is “Homo sapiens, HL-60, stimulation with 25 μM A23187 for 3 h”, the IC50 is at most 100 nM.
